In ChEMBL document CHEMBL5724914, “Linking interpersonal differences in gut microbiota composition and drug biotransformation activity” (2024):

What was measured:
[1] = The drug is tested on Z-016 corresponding to mouse gut metagenome with ENA study accession number: PRJEB37062 and ENA sample accession number: ERS12561815 for biotransformation under anaerobic condition. The drug concentrations were measured over 9 timepoints collected between 0 and 24 hours of incubation by liquid-chromatography-coupled mass spectrometry (LC–MS); conditions: 2 µM
[2] = The drug is tested on Z-030 corresponding to mouse gut metagenome with ENA study accession number: PRJEB37062 and ENA sample accession number: ERS12561829 for biotransformation under anaerobic condition. The drug concentrations were measured over 9 timepoints collected between 0 and 24 hours of incubation by liquid-chromatography-coupled mass spectrometry (LC–MS); conditions: 2 µM
[3] = The drug is tested on Z-013 corresponding to rabbit gut metagenome with ENA study accession number: PRJEB37062 and ENA sample accession number: ERS12561813 for biotransformation under anaerobic condition. The drug concentrations were measured over 9 timepoints collected between 0 and 24 hours of incubation by liquid-chromatography-coupled mass spectrometry (LC–MS); conditions: 2 µM
[4] = human gut metagenome, 24 h, 2 µM
[5] = human gut metagenome, 24 h, 2 µM; remark: listed apart in the source
[6] = human gut metagenome, 24 h, 2 µM; remark: listed apart in the source
[7] = The drug is tested on Z-006 corresponding to mouse gut metagenome with ENA study accession number: PRJEB37062 and ENA sample accession number: ERS12561806 for biotransformation under anaerobic condition. The drug concentrations were measured over 9 timepoints collected between 0 and 24 hours of incubation by liquid-chromatography-coupled mass spectrometry (LC–MS); conditions: 2 µM
[8] = human gut metagenome, 24 h, 2 µM; remark: listed apart in the source
[9] = The drug is tested on Z-010 corresponding to metagenome with ENA study accession number: PRJEB37062 and ENA sample accession number: ERS12561810 for biotransformation under anaerobic condition. The drug concentrations were measured over 9 timepoints collected between 0 and 24 hours of incubation by liquid-chromatography-coupled mass spectrometry (LC–MS); conditions: 2 µM
[10] = The drug is tested on WLS-082 corresponding to human gut metagenome with ENA study accession number: PRJEB37062 and ENA sample accession number: ERS12561751 for biotransformation under anaerobic condition. The drug concentrations were measured over 9 timepoints collected between 0 and 24 hours of incubation by liquid-chromatography-coupled mass spectrometry (LC–MS); conditions: 2 µM
[11] = The drug is tested on Z-029 corresponding to rat gut metagenome with ENA study accession number: PRJEB37062 and ENA sample accession number: ERS12561828 for biotransformation under anaerobic condition. The drug concentrations were measured over 9 timepoints collected between 0 and 24 hours of incubation by liquid-chromatography-coupled mass spectrometry (LC–MS); conditions: 2 µM
[12] = The drug is tested on WLS-240 corresponding to human gut metagenome with ENA study accession number: PRJEB37062 and ENA sample accession number: ERS12561773 for biotransformation under anaerobic condition. The drug concentrations were measured over 9 timepoints collected between 0 and 24 hours of incubation by liquid-chromatography-coupled mass spectrometry (LC–MS); conditions: 2 µM
[13] = The drug is tested on Z-021 corresponding to metagenome with ENA study accession number: PRJEB37062 and ENA sample accession number: ERS12561820 for biotransformation under anaerobic condition. The drug concentrations were measured over 9 timepoints collected between 0 and 24 hours of incubation by liquid-chromatography-coupled mass spectrometry (LC–MS); conditions: 2 µM
[14] = human gut metagenome, 24 h, 2 µM; remark: listed apart in the source
[15] = human gut metagenome, 24 h, 2 µM; remark: listed apart in the source
[16] = human gut metagenome, 24 h, 2 µM; remark: listed apart in the source
[17] = human gut metagenome, 24 h, 2 µM; remark: listed apart in the source
[18] = The drug is tested on Z-004 corresponding to metagenome with ENA study accession number: PRJEB37062 and ENA sample accession number: ERS12561804 for biotransformation under anaerobic condition. The drug concentrations were measured over 9 timepoints collected between 0 and 24 hours of incubation by liquid-chromatography-coupled mass spectrometry (LC–MS); conditions: 2 µM
[19] = The drug is tested on WLS-170 corresponding to human gut metagenome with ENA study accession number: PRJEB37062 and ENA sample accession number: ERS12561762 for biotransformation under anaerobic condition. The drug concentrations were measured over 9 timepoints collected between 0 and 24 hours of incubation by liquid-chromatography-coupled mass spectrometry (LC–MS); conditions: 2 µM
[20] = human gut metagenome, 24 h, 2 µM; remark: listed apart in the source
Also: call rule not given here.

Compound: Cc1ccc(-c2cc(C(F)(F)F)nn2-c2ccc(S(N)(=O)=O)cc2)cc1 [CELECOXIB]
- Bacterial Biotransformation [1]: Compound NOT metabolized
- Bacterial Biotransformation [2]: Compound NOT metabolized
- Bacterial Biotransformation [3]: Compound NOT metabolized
- Bacterial Biotransformation [4]: Compound NOT metabolized
- Bacterial Biotransformation [5]: Compound metabolized
- Bacterial Biotransformation [6]: Compound metabolized
- Bacterial Biotransformation [7]: Compound NOT metabolized
- Bacterial Biotransformation [8]: Compound metabolized
- Bacterial Biotransformation [9]: Compound NOT metabolized
- Bacterial Biotransformation [10]: Compound metabolized
- Bacterial Biotransformation [11]: Compound NOT metabolized
- Bacterial Biotransformation [12]: Compound metabolized
- Bacterial Biotransformation [13]: Compound NOT metabolized
- Bacterial Biotransformation [14]: Compound NOT metabolized
- Bacterial Biotransformation [15]: Compound NOT metabolized
- Bacterial Biotransformation [16]: Compound metabolized
- Bacterial Biotransformation [17]: Compound NOT metabolized
- Bacterial Biotransformation [18]: Compound NOT metabolized
- Bacterial Biotransformation [19]: Compound NOT metabolized
- Bacterial Biotransformation [20]: Compound metabolized

Compound: Clc1ccc(Cn2c(CN3CCCC3)nc3ccccc32)cc1 [CLEMIZOLE]
- Bacterial Biotransformation [1]: Compound NOT metabolized
- Bacterial Biotransformation [2]: Compound NOT metabolized
- Bacterial Biotransformation [3]: Compound metabolized
- Bacterial Biotransformation [4]: Compound metabolized
- Bacterial Biotransformation [5]: Compound metabolized
- Bacterial Biotransformation [6]: Compound NOT metabolized
- Bacterial Biotransformation [7]: Compound NOT metabolized
- Bacterial Biotransformation [8]: Compound metabolized
- Bacterial Biotransformation [9]: Compound metabolized
- Bacterial Biotransformation [10]: Compound metabolized
- Bacterial Biotransformation [11]: Compound NOT metabolized
- Bacterial Biotransformation [12]: Compound metabolized
- Bacterial Biotransformation [13]: Compound metabolized
- Bacterial Biotransformation [14]: Compound NOT metabolized
- Bacterial Biotransformation [15]: Compound NOT metabolized
- Bacterial Biotransformation [16]: Compound metabolized
- Bacterial Biotransformation [17]: Compound NOT metabolized
- Bacterial Biotransformation [18]: Compound NOT metabolized
- Bacterial Biotransformation [19]: Compound metabolized
- Bacterial Biotransformation [20]: Compound metabolized

Compound: CN1CCN(C2=Nc3cc(Cl)ccc3Nc3ccccc32)CC1 [CLOZAPINE]
- Bacterial Biotransformation [1]: Compound NOT metabolized
- Bacterial Biotransformation [2]: Compound NOT metabolized
- Bacterial Biotransformation [3]: Compound NOT metabolized
- Bacterial Biotransformation [4]: Compound metabolized
- Bacterial Biotransformation [5]: Compound metabolized
- Bacterial Biotransformation [6]: Compound metabolized
- Bacterial Biotransformation [7]: Compound NOT metabolized
- Bacterial Biotransformation [8]: Compound metabolized
- Bacterial Biotransformation [9]: Compound NOT metabolized
- Bacterial Biotransformation [10]: Compound NOT metabolized
- Bacterial Biotransformation [11]: Compound NOT metabolized
- Bacterial Biotransformation [12]: Compound metabolized
- Bacterial Biotransformation [13]: Compound NOT metabolized
- Bacterial Biotransformation [14]: Compound NOT metabolized
- Bacterial Biotransformation [15]: Compound NOT metabolized
- Bacterial Biotransformation [16]: Compound metabolized
- Bacterial Biotransformation [17]: Compound metabolized
- Bacterial Biotransformation [18]: Compound NOT metabolized
- Bacterial Biotransformation [19]: Compound metabolized
- Bacterial Biotransformation [20]: Compound NOT metabolized

Compound: COc1cc2c(c(OC)c1OC)-c1ccc(OC)c(=O)cc1[C@@H](NC(C)=O)CC2 [COLCHICINE]
- Bacterial Biotransformation [1]: Compound metabolized
- Bacterial Biotransformation [2]: Compound NOT metabolized
- Bacterial Biotransformation [3]: Compound NOT metabolized
- Bacterial Biotransformation [4]: Compound NOT metabolized
- Bacterial Biotransformation [5]: Compound metabolized
- Bacterial Biotransformation [6]: Compound metabolized
- Bacterial Biotransformation [7]: Compound NOT metabolized
- Bacterial Biotransformation [8]: Compound metabolized
- Bacterial Biotransformation [9]: Compound metabolized
- Bacterial Biotransformation [10]: Compound metabolized
- Bacterial Biotransformation [11]: Compound NOT metabolized
- Bacterial Biotransformation [12]: Compound metabolized
- Bacterial Biotransformation [13]: Compound NOT metabolized
- Bacterial Biotransformation [14]: Compound NOT metabolized
- Bacterial Biotransformation [15]: Compound NOT metabolized
- Bacterial Biotransformation [16]: Compound NOT metabolized
- Bacterial Biotransformation [17]: Compound metabolized
- Bacterial Biotransformation [18]: Compound NOT metabolized
- Bacterial Biotransformation [19]: Compound metabolized
- Bacterial Biotransformation [20]: Compound metabolized

Compound: CC(=O)OCC(=O)[C@@]12N=C(C)O[C@@H]1C[C@H]1[C@@H]3CCC4=CC(=O)C=C[C@]4(C)[C@H]3[C@@H](O)C[C@@]12C [DEFLAZACORT]
- Bacterial Biotransformation [1]: Compound metabolized
- Bacterial Biotransformation [2]: Compound metabolized
- Bacterial Biotransformation [3]: Compound metabolized
- Bacterial Biotransformation [4]: Compound metabolized
- Bacterial Biotransformation [5]: Compound metabolized
- Bacterial Biotransformation [6]: Compound metabolized
- Bacterial Biotransformation [7]: Compound metabolized
- Bacterial Biotransformation [8]: Compound metabolized
- Bacterial Biotransformation [9]: Compound metabolized
- Bacterial Biotransformation [10]: Compound metabolized
- Bacterial Biotransformation [11]: Compound NOT metabolized
- Bacterial Biotransformation [12]: Compound metabolized
- Bacterial Biotransformation [13]: Compound metabolized
- Bacterial Biotransformation [14]: Compound metabolized
- Bacterial Biotransformation [15]: Compound NOT metabolized
- Bacterial Biotransformation [16]: Compound metabolized
- Bacterial Biotransformation [17]: Compound metabolized
- Bacterial Biotransformation [18]: Compound metabolized
- Bacterial Biotransformation [19]: Compound metabolized
- Bacterial Biotransformation [20]: Compound metabolized

Compound: CN(C)CC(c1ccc(O)cc1)C1(O)CCCCC1.O=C(O)CCC(=O)O (stereo not given) [DESVENLAFAXINE SUCCINATE]
- Bacterial Biotransformation [1]: Compound NOT metabolized
- Bacterial Biotransformation [2]: Compound NOT metabolized
- Bacterial Biotransformation [3]: Compound NOT metabolized
- Bacterial Biotransformation [4]: Compound NOT metabolized
- Bacterial Biotransformation [5]: Compound NOT metabolized
- Bacterial Biotransformation [6]: Compound NOT metabolized
- Bacterial Biotransformation [7]: Compound NOT metabolized
- Bacterial Biotransformation [8]: Compound NOT metabolized
- Bacterial Biotransformation [9]: Compound NOT metabolized
- Bacterial Biotransformation [10]: Compound NOT metabolized
- Bacterial Biotransformation [11]: Compound NOT metabolized
- Bacterial Biotransformation [12]: Compound NOT metabolized
- Bacterial Biotransformation [13]: Compound NOT metabolized
- Bacterial Biotransformation [14]: Compound NOT metabolized
- Bacterial Biotransformation [15]: Compound NOT metabolized
- Bacterial Biotransformation [16]: Compound NOT metabolized
- Bacterial Biotransformation [17]: Compound NOT metabolized
- Bacterial Biotransformation [18]: Compound NOT metabolized
- Bacterial Biotransformation [19]: Compound NOT metabolized
- Bacterial Biotransformation [20]: Compound NOT metabolized
